In US4713247A, “Long-acting formulation of cefaclor” (priority 1983, dated 1987):
Values after ≈ are worked out from the molar mass of the structure shown. “Also recorded” adds a separate entry of the source. Like-named read-outs stand apart in the source and are kept apart here.

Assays:
[1] = parameters: species or system healthy and adult men (volunteers); conditions: human, in vivo, po
Experimental: 250 mg Capsules of Keflex® (Shionogi & Co., (LTD-Lilly) as CEX and 250 mg capsules of Kefral® (Shionogi & Co., LTD-Lilly) as CCL were employed.
The subjects, 12 healthy and adult men aged 21 to 39 years with 1.58 to 1.83 m^2 in the body surface area.
To each subject after fasting, who had no meal after supper of the previous day, were given orally the capsules with 100 ml of warm water, and the fasting was continued for 2 hours, except giving them a prefixed amount of water. CEX and CCL were given to the 12 subjects in a cross-over method, and any drugs other than CEX or CCL were not applied for one week.
The blood was collected 8 times, just before the administration, after 0.5, 0.75, 1, 1.5, 2, 3 and 6 hours. The plasma was centrifugally separated under cooling immediately after each collection, rapidly frozen and then preserved at -20° C. until the time of measurement.
The measurement were made within a week after the collection. After the frozen samples were allowed to melt at 4° C., a series of ten-fold dilution was prepared with 0.1M of phosphate buffer (pH 6.0), on which the blood level was measured by a band culture method using Micrococcus luteus ATCC 9341 as standard. Antibiotic Medium No. 8 (Difco; hereinafter referred to as ABM 8) was employed as a medium.

[2] = tested on: Escherichia coli NIH JC-2; experiment: Minimum inhibitory concentration, Escherichia coli NIH JC-2 (Table 1); format: cell-based; conditions: NIHJC2, dilution method, Chemotherapy 29(1), 76-79 (1981)
Experimental: (§1) Minimum Inhibitory Concentrations (MICs) were assayed according to the
(§2) dilution method disclosed in Chemotherapy 29(1), 76-79 (1981).

[3] = tested on: Escherichia coli No. 29; experiment: Minimum inhibitory concentration, Escherichia coli No. 29 (Table 1); format: cell-based; conditions: dilution method, Chemotherapy 29(1), 76-79 (1981)
Experimental: as §1, §2

[4] = tested on: Escherichia coli NIH JC2 or Escherichia coli No. 29; experiment: Time and concentration required for 99% sterilization, both strains together (Experiment 2); format: cell-based; conditions: in words
Experimental: Additionally, the bactericidal effects of CCL were compared with those of CEX through the following in vitro tests (details of the tests are described afterwards). The concentrations of CCL or CEX and the time which are needed for diminishing 99% of the inoculum size were measured (FIG. 2, Table 2).
Heart infusion broth (Nissui Pharmaceutical Co.)
The test microorganisms at the logarithmic growth phase (about 10^6 CFU/ml) were spread into the aforementioned broth placed in tubes, to which CCL or CEX was applied at prefixed serial concentrations. Changing in the number of viable microorganisms was monitored in order to measure the time required for 99% sterilization of the inoculum size in each tube.

[5] = tested on: Staphylococcus aureus No. 1037; experiment: Susceptibility (MIC) of Staphylococcus aureus No. 1037; format: cell-based
Experimental: (2)Susceptibility of the test miocroorganisms (MIC value):
(§3) 1.56 μg/ml: The value was determined by the above-identified method, where Muller-Hinton agar (Difco) as the medium was employed. Method 1.

[6] = tested on: Staphylococcus aureus No. 1021; experiment: Susceptibility (MIC), Staphylococcus aureus No. 1021 (Table 3); format: cell-based
Experimental: as §3
(§4) The same procedures as in Experiment 3. were applied to the following strains. The following MIC values were also determined according to the same method as in Experiment 3.
(§5) The values with *^1 or *^2 were determined by the method 1 or 2
(§6) disclosed in Experiment 3, respectively.

[7] = tested on: Staphylococcus aureus No. 6; experiment: Susceptibility (MIC), Staphylococcus aureus No. 6 (Table 3); format: cell-based
Experimental: as §3, §4, §5, §6

[8] = tested on: Escherichia coli ES-80; experiment: Susceptibility (MIC), Escherichia coli ES-80 (Table 3); format: cell-based
Experimental: as §3, §4, §5, §6

[9] = tested on: Escherichia coli ES-68; experiment: Susceptibility (MIC), Escherichia coli ES-68 (Table 3); format: cell-based
Experimental: as §3, §4, §5, §6

[10] = tested on: Escherichia coli ES-69; experiment: Susceptibility (MIC), Escherichia coli ES-69 (Table 3); format: cell-based
Experimental: as §3, §4, §5, §6

[11] = relative to CEX; cited from earlier work
[12] = clinical use; cited from earlier work

Row | Compound | half-life compared with CEX [1] | MIC [2] [µg/mL] | MIC [3] [µg/mL] | time required for 99% sterilization compared with CEX ([4]; relative to CEX, monohydrate) | MIC ([5]; NO.1037, Method 1, Muller-Hinton agar) [µg/mL] | MIC ([5]; NO.1037, Method 2, ABM 3 broth, 18 to 20 hours after inoculation (10^5 CFU/ml)) [µg/mL] | MIC ([6]; NO.1021, 10^5 CFU/ml, Method 2) [µg/mL] | MIC ([6]; NO.1021, 10^6 CFU/ml, Method 1) [µg/mL] | MIC ([7]; NO.6, 10^5 CFU/ml, Method 2) [µg/mL] | MIC ([7]; NO.6, 10^6 CFU/ml, Method 1) [µg/mL] | MIC ([8]; ES80, 10^5 CFU/ml, Method 2) [µg/mL] | MIC ([8]; ES80, 10^6 CFU/ml, Method 1) [µg/mL] | MIC ([9]; ES68, 10^5 CFU/ml, Method 2) [µg/mL] | MIC ([9]; ES68, 10^6 CFU/ml, Method 1) [µg/mL] | MIC ([10]; 10^5 CFU/ml, Method 2) [µg/mL] | MIC ([10]; Escherichia coli, ES69, 10^6 CFU/ml, Method 1, read-out: MIC) [µg/mL] | antimicrobial spectrum compared with CEX [11] | bactericidal action compared with CEX [11] | clinical effectiveness [12] | concentration needed for diminishing 99% of the inoculum size ([4]; multiples of MIC)
1 | N[C@@H](C(=O)N[C@@H]1C(=O)N2C(C(=O)O)=C(Cl)CS[C@H]12)c1ccccc1 [CCL, 3-chloro-7-D-(2-phenylglycinamido)-3-cephem-4-carboxylic acid monohydrate] | half-life shorter | 3.13 | 1.56 | within a shorter period of time than CEX; also recorded: much shorter at any MIC of 1/2 to about 64 than for CEX | 1.56 | 3.13 | 3.13 | 1.56 | 6.25 | 3.13 | 3.13 | 1.56 | 3.13 | 1.56 | 3.13 | 3.13 | broader spectrum | more potent bactericidal action than CEX | highly effective in clinical use | 
2 | CC1=C(C(=O)O)N2C(=O)[C@@H](NC(=O)[C@H](N)c3ccccc3)[C@H]2SC1 [CEX] |  | 6.25 (≈ 18 µM) | 3.13 (≈ 9.01 µM) |  |  |  |  |  |  |  |  |  |  |  |  |  |  |  |  | at least one MIC; also recorded: one or more MICs
